The values that follow come from ChEMBL document CHEMBL1201862, “PubChem BioAssay data set” (2004).

Activity calls are given as the source filed them.

In experiment [1] the target is Glyceraldehyde-3-phosphate dehydrogenase (Homo sapiens, UniProt P04406).
Experiment [2] addresses T1, Bcl-2-related protein A1 (Mus musculus, UniProt Q07440).
T1 sequence (Q07440 whole entry): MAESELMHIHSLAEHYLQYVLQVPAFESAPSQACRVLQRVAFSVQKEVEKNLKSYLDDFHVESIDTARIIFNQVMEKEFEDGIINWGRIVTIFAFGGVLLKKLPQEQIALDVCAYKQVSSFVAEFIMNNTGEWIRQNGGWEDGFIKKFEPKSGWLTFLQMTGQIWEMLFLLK
As to the kind of experiment: small-molecule antagonists of Bfl-1/BH3 interaction – biochemical, TR-FRET, mouse Bfl-1, confirmation (AID 621).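 Also: TR-FRET binding of GST-Bfl-1 to FITC-labelled Bid peptide via terbium antibody.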 Background: In TR-FRET formats the signal depends on donor and acceptor labels being close together.

Experiment [3] deals with T1, Bcl-2-related protein A1. As to the kind of experiment: Bfl-1 binding inhibitors, SAR follow-up, biochemical, fluorescence polarization (AID 1070). (In fluorescence polarisation assays a small probe gives low polarisation when free and higher when bound to something large.)
Experiment [4] is described as follows: SNU-C1 cell viability reduction, dose response, CellTiter-Glo luminescence (AID 1117323). It is filed as functional, cell-based. (In ATP-based viability assays light output follows the ATP content of the culture.)
Experiment [5] is described as follows: cytotoxicity toward HCT116 cells – cell-based, CellTiter-Glo luminescence, IC50, dose response (AID 1117332). It is filed as functional. The following applies: HCT-116.
Experiment [6] is described as follows: HCT116 cell viability decrease, GSK3B pretreatment – CellTiter-Glo, IC50, dose response (AID 1117339). The settings on record: HCT-116. It is filed as functional.
A short description of experiment [7]: CellTiter-Glo luminescence survival assay, SW480 colon tumor line, concentration-response curve, half-maximal inhibitory concentration (AID 1117338). It is filed as functional.
Experiment [8] in a line: rise of 4N DNA cells, HeLa – IC50, dose response (AID 1117351). It is filed as functional, cell-based.
Experiment [9] can be described thus: cytotoxicity toward HT-29 cells – cell-based, CellTiter-Glo luminescence, IC50, dose response (AID 1117330). It is filed as functional.
Experiment [10] can be described thus: RKO cell viability reduction, dose response, CellTiter-Glo luminescence (AID 1117322). It is filed as functional.
Experiment [11] is described as follows: rise of 2N DNA cells, HeLa – IC50, dose response (AID 1117349). It is filed as functional, cell-based.
Experiment [12] is described as follows: cytotoxicity toward Colo320 cells – cell-based, CellTiter-Glo luminescence, IC50, dose response (AID 1117334). The settings on record: COLO 320. It is filed as functional.
The nature of experiment [13]: Reduced DLD-1 viability, concentration-response, CellTiter-Glo luminescence (AID 1117352). The class given is functional.
Experiment [14] is described as follows: HIV-1 AD8 envelope cell-cell fusion blockers – cherry-pick, dose response (AID 652062).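 Also: luciferase signal from cell-cell fusion driven by HIV-1 clade B AD8 Env; potency is for inhibitors of fusion seen as a drop in luminescence.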 The class given is functional, cell-based.
In the next experiment the target is Paired box protein Pax-8 (Homo sapiens, UniProt Q06710). Nature of the experiment: PAX8 transcriptional activity inhibition in RMG-I – RMG-I cells, luciferase, cherry-pick, dose response (AID 687027).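 Also: luciferase reporter driven by Pax8 target thyroperoxidase promoter measured by SteadyGlo luminescence.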 The class given is functional, cell-based.
Chain of Paired box protein Pax-8 (Q06710 whole entry): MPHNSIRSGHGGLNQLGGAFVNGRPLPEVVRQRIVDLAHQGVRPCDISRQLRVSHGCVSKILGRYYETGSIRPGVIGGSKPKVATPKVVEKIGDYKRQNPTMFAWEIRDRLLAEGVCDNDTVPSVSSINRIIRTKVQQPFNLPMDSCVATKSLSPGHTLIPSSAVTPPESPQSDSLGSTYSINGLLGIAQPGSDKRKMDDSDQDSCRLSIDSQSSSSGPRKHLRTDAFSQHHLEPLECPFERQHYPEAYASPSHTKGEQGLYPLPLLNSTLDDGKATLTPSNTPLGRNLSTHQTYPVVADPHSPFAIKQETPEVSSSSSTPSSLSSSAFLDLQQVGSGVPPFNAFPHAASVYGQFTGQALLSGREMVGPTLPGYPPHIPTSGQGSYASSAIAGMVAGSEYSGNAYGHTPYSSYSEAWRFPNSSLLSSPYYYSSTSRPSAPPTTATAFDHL
Experiment [15] can be described thus: PAX5 cellular inhibition readout – cell-based, plate reader, dry powder samples, selectivity assay for PAX8 inhibitor project, dose response (AID 743047).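 Also: HEK293 cells carrying a Pax5 driven CD19 promoter luciferase reporter; potency of inhibitors that lower reporter luminescence.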 It is filed as functional.
Experiment [16] in a line: inhibitors acting on PAX2 in cells – cell-based, plate reader, dry powder samples, selectivity assay for PAX8 inhibitor project, dose response (AID 743048).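 Also: HEK293 cells carrying a WT1 promoter luciferase reporter driven by expressed Pax2; potency is for inhibition of Pax2 driven reporter signal.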 The class given is functional.
Experiment [17] in a line: PAX8-dependent cell viability loss – plate reader, dry powder, dose response (AID 743049). It is filed as functional, cell-based.
Experiment [18] in a line: OVCAR4 cell viability loss – plate reader, dry powder, SA11, cytotoxicity control for PAX8 inhibitor project, dose response (AID 743150). The class given is functional, cell-based. The following applies: OVCAR-4.
A short description of experiment [19]: COV434 cell viability loss – plate reader, dry powder, SA7, cytotoxicity control for PAX8 inhibitor project, dose response (AID 743145). The class given is functional, cell-based.
A short description of experiment [20]: OV-90 cell viability loss – plate reader, dry powder, SA8, PAX8 inhibitor project, dose response (AID 743149). It is filed as functional, cell-based.
Experiment [21] is described as follows: blockers of HIV-1 envelope-mediated cell-cell fusion – cherry-pick, dose response (AID 652057). The class given is functional, cell-based.
A short description of experiment [22]: OVCAR-3 cell viability loss – plate reader, dry powder samples, PAX8 inhibitor project, dose response (AID 743044). The class given is functional, cell-based.
Experiment [23] can be described thus: antimalarial activity against Dd2 parasites – SYBR Green fluorescence, erythrocytes, dry powder, set 2, dose response (AID 1159574). It is filed as functional, cell-based.
The nature of experiment [24]: general cell-killing toxicity readout – plate reader, dry powder samples, cytotoxicity control for PAX8 inhibitor project, dose response (AID 743021). It is filed as functional, cell-based.
A short description of experiment [25]: OVCAR8 cell viability loss – plate reader, dry powder samples, PAX8 project, dose response (AID 743197). The settings on record: OVCAR-8. The class given is functional, cell-based.

Chain of Glyceraldehyde-3-phosphate dehydrogenase (P04406 whole entry): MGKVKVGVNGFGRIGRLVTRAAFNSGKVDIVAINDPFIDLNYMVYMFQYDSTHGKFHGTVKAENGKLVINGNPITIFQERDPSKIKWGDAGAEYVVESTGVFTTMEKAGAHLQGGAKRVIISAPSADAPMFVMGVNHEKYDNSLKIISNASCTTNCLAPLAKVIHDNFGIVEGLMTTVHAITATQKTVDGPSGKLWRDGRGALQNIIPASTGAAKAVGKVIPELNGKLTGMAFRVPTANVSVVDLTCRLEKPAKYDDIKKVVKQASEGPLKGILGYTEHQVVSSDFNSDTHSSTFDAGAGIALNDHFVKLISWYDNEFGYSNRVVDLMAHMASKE

A word on the IC50: it is the point on the concentration scale where inhibition reaches its midpoint. Regarding `O=C1C(Cl)=C(Cl)C(=O)N1c1ccc(Cl)c(Cl)c1`, the half-inhibitory concentration (IC50) is > 100 µM (not active) in experiment [1], 770 nM (active) on Bcl-2-related protein A1 [2] and 1.15 µM (active) at Bcl-2-related protein A1 [3].

Take `CCCCCCCCCCCC[N+](C)(C)Cc1ccccc1`: the half-inhibitory concentration (IC50) in experiment [4] is 0.02 µM (active); in experiment [5], 1.96 µM (active); in experiment [6], > 20 µM (inactive); in experiment [7], 7.95 µM (inactive); in [8] it was > 10 µM (inactive); in experiment [9] it was 0.465 µM (active). The concentration for half-maximal inhibition (IC50) in experiment [10] is 3.07 µM (active); in [11] it was > 10 µM (inactive); in experiment [12] it was 8.99 µM (inactive); in [13], 0.738 µM (active).

In general, AC50 refers to the concentration giving half of the maximal activity seen. For the compound `N#C[C@@H]1[C@H](c2ccc(-c3ccccc3F)cc2)[C@@H](CO)N1C(=O)Cc1ccccc1`, the AC50 is 19.8 µM (active) in experiment [14]; 17.3 µM (active) on Paired box protein Pax-8; 26.2 µM (active) in experiment [15]; 23.8 µM (active) in [16]; 20.3 µM (active) in experiment [17]; 30.4 µM (active) in [18]. Besides, the AC50 in [19] was > 70 µM (inactive); in experiment [20], 56.2 µM (active); in experiment [21] it was 35 µM (active).

For `COc1ccc(NC(=O)N2CCCCN3[C@H](C2)[C@@H](c2ccc(C#Cc4ccccc4)cc2)[C@@H]3CO)cc1`, the AC50 on Paired box protein Pax-8 was 5.67 µM (active); in [22], 58.4 µM (active); in experiment [23] it was 2.1 µM (active); in experiment [24], 29.7 µM (active); in [25], 39.7 µM (active).

In the case of `C[C@H](O)CN(C)C`, the IC50 in [4], in [5], in [6], in experiment [7], in experiment [9] and in experiment [10] was > 20 µM (inactive) throughout. Besides, the IC50 in experiment [12] and in experiment [13] was > 20 µM (inactive) throughout.

In the case of `NCCNc1ccc(NCCN)c2c1C(=O)c1ccncc1C2=O` [PIXANTRONE], the results for the IC50 in [8] and in [11] were 0.0483 µM (active) and 0.042 µM (active), respectively.
